Results from patent US20120301457A1 (priority 2010, published 2012).

molecular target: recombinant mouse PrP (Mus musculus, UniProt P04925); type: biochemical
Sequence (P04925 23-254 limits assumed): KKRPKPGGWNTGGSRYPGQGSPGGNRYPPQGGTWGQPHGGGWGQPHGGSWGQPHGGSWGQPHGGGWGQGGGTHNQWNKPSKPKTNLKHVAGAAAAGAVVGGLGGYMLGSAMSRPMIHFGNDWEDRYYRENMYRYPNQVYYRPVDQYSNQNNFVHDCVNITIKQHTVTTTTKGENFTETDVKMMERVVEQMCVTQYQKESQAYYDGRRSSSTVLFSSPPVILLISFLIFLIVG

Compound | ability to facilitate amplification and propagation of PrP^Sc
CCCCCCCCCCCCCCCC(=O)OC[C@H](COP(=O)(O)OCCN)OC(=O)CCCCCCCCCCCNc1ccc([N+](=O)[O-])c2nonc12 [16:0-12:0 NBD PE, 1-palmitoyl-2-{12-[(7-nitro-2-1,3-benzoxadiazol-4-yl)amino]lauroyl}-sn-glycero-3-phosphoethanolamine] | successfully facilitated propagation
CCCCCCCC/C=C\CCCCCCCC(=O)O[C@H](COC(=O)CCCCCCCCCCCCCCC)COP(=O)(O)OCCN [16:0-18:1 PE, 1-palmitoyl-2-oleoyl-sn-glycero-3-phosphoethanolamine] | successfully facilitated propagation
CCCCCCCC/C=C\CCCCCCCC(=O)O[C@H](CO/C=C\CCCCCCCCCCCCCCCC)COP(=O)(O)OCCN [C18(Plasm)-18:1 PE, 1-(1Z-octadecenyl)-2-oleoyl-sn-glycero-3-phosphoethanolamine] | successfully facilitated propagation
CCCCC/C=C\C/C=C\C/C=C\C/C=C\CCCC(=O)O[C@H](CO/C=C\CCCCCCCCCCCCCCCC)COP(=O)(O)OCCN [C18(Plasm)-20:4 PE, 1-(1Z-octadecenyl)-2-arachidonoyl-sn-glycero-3-phosphoethanolamine] | successfully facilitated propagation
cerebrosides | facilitate prion amplification to a lesser extent
phosphatidic acid | facilitate prion amplification to a lesser extent
phosphatidylcholine | facilitate prion amplification to a lesser extent
phosphatidylglycerol | facilitate prion amplification to a lesser extent
phosphatidylinositol | facilitate prion amplification to a lesser extent
phosphatidylserine | facilitate prion amplification to a lesser extent
sulfatides | facilitate prion amplification to a lesser extent
